Values of other authors, collected in PMC6340882, “Targeting protein kinase CK2 and CDK4/6 pathways with a multi-kinase inhibitor ON108110 suppresses pro-survival signaling and growth in mantle cell lymphoma and T-acute lymphoblastic leukemia” (Oncotarget, 2018).

Tested on: mantle cell lymphoma
Parameters: method as in PMID 22383795
Conditions: monotherapy for MCL, patients; cited from earlier work

## CC(=O)c1c(C)c2cnc(Nc3ccc(N4CCNCC4)cn3)nc2n(C2CCCC2)c1=O [Palbociclib]
  overall response rate: 18%
